Laboratory results from patent US5798375A, “Treatment of arteriosclerosis and xanthoma” (Sankyo Company, Limited, priority 1995, dated 1998).

Experiments:
WHHL rabbits [1] = test: Example 2: incidence and degree of xanthoma of the four legs; type: in vivo, Male WHHL rabbits; parameters: Frequency of massive xanthoma: unit not given here
Description: (§1) Each test compound was administered for eight months to the rabbits in the form of an aqueous suspension (0.5% carboxymethylcellulose added). In the control group, a 0.5% carboxymethylcellulose solution only was administered.
The incidence and the degree of xanthoma of the four legs were measured.

WHHL rabbits [2] = test: Example 2: percentage area covered by lesions, aortic arch and whole aorta; type: in vivo, Male WHHL rabbits; parameters: Lesion Area, Aortic Arch, percentage against the control group / Lesion Area, Total Aorta, percentage against the control group: concentration or dose not given beside the values; details: oral, eight months
Description: as §1
The values actually measured are represented by the mean value plus or minus standard error. The numbers in parentheses represent the percentage lesion area against the control group.
*p<0.05, **p<0.01; significant difference against the control group under the [Mann-Whitney's U-Test A significant difference (p<0.05) was observed between Groups B and F, between Groups C and E and between Groups D and F at the aortic arch, and between Groups C and E over the total aorta.

[3] = Example 2: serum cholesterol in WHHL rabbits; type: in vivo, Male WHHL rabbits; details: Groups C and D (pioglitazone 20 mg/kg; Compound A 10 mg/kg)
Description: as §1

WHHL rabbits [4] = test: Example 2: average thickening of intima in aorta; type: in vivo, Male WHHL rabbits; parameters: Average thickening of intima, Aortic Arch, percentage against the control group / Average thickening of intima, Total Aorta, percentage against the control group: concentration or dose not given beside the values
Description: as §1
The values actually measured are represented as the mean value plus or minus a standard error (μm). The numbers in parentheses represent the percentage intimal thickening against the control group. A significant difference was observed between Groups D and F at the aortic arch, and between Groups C and E and between Groups D and F over the total aorta (p<0.05) under the Mann-Whitney's U-Test.
The average thickening of the intima is calculated by the cross-sectional area of the aortic tunica intima one section from the arch and two sections from the thoracic and abdominal portions, divided by the length of the tunica media.

WHHL rabbits [5] = test: Example 2: aortic cholesterol content; type: in vivo, Male WHHL rabbits
Description: as §1
The aortic cholesterol content was measured The tunica media and tunica intima at the aortic arch and at the thoracic and abdominal aorta were peeled away with tweezers and cut into pieces. The pieces were extracted with a 2:1 by volume mixture of chloroform and methanol.
The chloroform phase was separated and evaporated to dryness and the residue was dissolved in isopropanol. The total cholesterol and the free cholesterol were measured by a conventional enzymatic method.
Data are expressed by the mean plus or minus standard error (mg/g tissue). The values in parentheses indicate the percentage against the control. A significant difference against the control group was observed by the unpaired student t-test: […]

Male Fl b hamsters = test: Example 4: regression of preformed atherosclerosis in hamsters (Oil Red O stained area); type: in vivo; details: for Stained Area ORO: aortic arch, 4 weeks, control 1.82 ± 0.44
Description: Synergism of HMG CoA reductase inhibitors and thiazolidinedione insulin sensitizers was examined by another regression model, i.e. the regression of preformed atherosclerosis in hamsters. Male Fl b hamsters (weight about 130 g,) were given a diet containing 0.05% cholesterol for 13 weeks. They were grouped randomly (2-7 animals per group), and then the test samples were administered for 4 weeks while the hamsters were given a normolipidaemic diet. Pravastatin and fluvastatin were mixed with drinking water at the dose of 3 mg/kg and 1.5 mg/kg, respectively, while troglitazone was mixed with the diet at the dose of 30 mg/kg or 100 mg/kg.
In the case of the combination groups, the dosage was 3 mg/kg+30 mg/kg or 3 mg/kg+100 mg/kg for the pravastatin+troglitazone group, and 1.5 mg/kg+30 mg/kg for the fluvastatin+troglitazone group.
Namely, the aortic arch was stained with ORO to prepare en face specimens. The percentage area which was positive to the ORO stain over the whole area was measured to represent the degree of aortic lesion.

[6] = Example 1: plasma total cholesterol in WHHL rabbits; type: in vivo; details: pravastatin 50 mg/kg/day oral gavage, troglitazone in diet containing 100 mg/kg
Description: (§2) WHHL rabbits [2-3 months of age, the Watanabe heritable hyperlipidemic rabbit described in Biochimica et Biophysica Acta, 960, 294-302 (1988)] were randomly assigned to a control group (7 animals, group A), a group receiving pravastatin alone (5 animals, Group B), a group receiving troglitazone alone (7 animals, Group C), and a group receiving a combination of both active substances (6 animals, Group D). Pravastatin was administered orally by gavage at a dose of 50 mg/kg/day once-daily and troglitazone was given in the diet, containing 100 mg/kg of the substance for 32 weeks. The ingested amount was limited to a daily 120 g per rabbit. Blood was withdrawn from the animal immediately before starting the study and 4, 8, 12, 16, 20, 24, 28 and 32 weeks after starting the study and the total cholesterol levels (mg/dl) were determined for each blood sample. The levels are reported as a percentage (%) of the levels measured immediately before starting the study. The animals were sacrificed and necropsied at week 32 to examine (a) the percent lesion area (%) in the total, thoracic or abdominal portion of the aorta; (b) the stenosis (%) of the coronary arteries and (c) the incidence (%) of xanthoma in the digital joints.

[7] = tested on: Male New Zealand white rabbits; test: Example 3: regression of established atherosclerotic lesions in the cholesterol-fed rabbit model; type: in vivo
Description: The rabbits were grouped randomly (3-9 animals per group) and the test samples were administered orally for two months, while they were fed with a normolipidaemic diet. […] The results are shown in terms of the percentage of lesion area in the thoracic aorta.

WHHL rabbits [8] = test: Example 1: incidence of xanthoma in the digital joints of WHHL rabbits; type: in vivo
Description: as §2
(§3) The values actually measured are represented as an average value±standard error in those Tables.

WHHL rabbits [9] = test: Example 1: stenosis of the coronary arteries in WHHL rabbits; type: in vivo; details: week 32
Description: as §2, §3

WHHL rabbits [10] = test: Example 1: percent lesion area of the aorta in WHHL rabbits; type: in vivo; details: week 32, mean ± standard error, pravastatin 50 mg/kg/day, troglitazone in diet containing 100 mg/kg, * p < 0.05 vs control
Description: as §2, §3

[11] = oral, eight months, control 100 (14/14), *p < 0.05, **p < 0.01 vs control

CCc1ccc(CCOc2ccc(CC3SC(=O)NC3=O)cc2)nc1 (stereo not shown) [Pioglitazone, 5-{4-[2-(5-ethylpyridin-2-yl)ethoxy]benzyl}-2,4-thiazolidinedione]
Frequency of massive xanthoma (WHHL rabbits [1]; control 57, *p < 0.05, **p < 0.01 vs control): 68 | incidence of xanthoma (WHHL rabbits [1]; forelegs and hindlegs): slightly less frequent incidence of xanthoma | Distribution of severity of lesion: (-) no lesions (WHHL rabbits [1]; number of legs, control 0): 2 | Distribution of severity of lesion: (+++) severe lesion (WHHL rabbits [1]; number of legs, control 6): 8 | Distribution of severity of lesion: (++) moderate lesion (WHHL rabbits [1]; number of legs, control 10): 11 | Distribution of severity of lesion: (+) slight lesion (WHHL rabbits [1]; number of legs, control 12): 7 | Incidence of xanthoma, Forelegs (WHHL rabbits [1]; [11]): 100% | Incidence of xanthoma, Hindlegs (WHHL rabbits [1]; [11]): 86% | Incidence of xanthoma, Total (WHHL rabbits [1]; oral, eight months, control 100 (28/28), *p < 0.05, **p < 0.01 vs control): 93% | Lesion Area, Aortic Arch, percentage against the control group (WHHL rabbits [2]; number in parentheses): 88% | Lesion Area, Total Aorta, percentage against the control group (WHHL rabbits [2]; number in parentheses): 108% | Lesion Area, Total Aorta (WHHL rabbits [2]; pravastatin 50, pioglitazone 20, Compound A 10 mg/kg, mean ± standard error, *p<0.05, **p<0.01 vs control): 54 ± 8% | Lesion Area, Aortic Arch (WHHL rabbits [2]; pravastatin 50, pioglitazone 20, Compound A 10 mg/kg, mean ± standard error, control 82 ± 5, *p<0.05, **p<0.01 vs control): 72 ± 10% | reduction of the serum cholesterol levels [3]: no reduction | suppression of intimal thickening (WHHL rabbits [4]; combinations compared with Groups C and D): no suppression of hypertrophy | Average thickening of intima, Aortic Arch, percentage against the control group (WHHL rabbits [4]; number in parentheses): 103% | Average thickening of intima, Total Aorta, percentage against the control group (WHHL rabbits [4]; number in parentheses): 115% | Average thickening of intima in aorta, Total Aorta (WHHL rabbits [4]; oral, eight months, pravastatin 50, pioglitazone 20, Compound A 10 mg/kg, mean ± standard error, control 154 ± 33): 177 ± 26 μm | Average thickening of intima in aorta, Aortic Arch (WHHL rabbits [4]; oral, eight months, pravastatin 50, pioglitazone 20, Compound A 10 mg/kg, mean ± standard error, control 237 ± 63): 245 ± 37 μm | Cholesterol level of Thoracic and Abdominal Aorta, Esterified (WHHL rabbits [5]; mean ± standard error, control 5.3 ± 1.7): 10.5 ± 3.8 mg/g tissue | Cholesterol Content of Aortic Arch, Esterified (WHHL rabbits [5]; mean ± standard error, control 6.5 ± 1.4, *p < 0.05): 6.6 ± 2.7 mg/g tissue | Cholesterol level of Thoracic and Abdominal Aorta, Free (WHHL rabbits [5]; mean ± standard error, control 14.8 ± 2.3, *p < 0.05 vs control): 23.4 ± 3.8 mg/g tissue | Cholesterol level of Thoracic and Abdominal Aorta, Total (WHHL rabbits [5]; mean ± standard error, control 20.1 ± 2.3, *p < 0.05, **p < 0.02 vs control): 33.9 ± 7.3 mg/g tissue | Cholesterol Content of Aortic Arch, Free (WHHL rabbits [5]; mean ± standard error, control 20.6 ± 2.9): 26.9 ± 2.3 mg/g tissue | Cholesterol Content of Aortic Arch, Esterified, percentage against the control (WHHL rabbits [5]; number in parentheses): 102% | Cholesterol Content of Aortic Arch, Free, percentage against the control (WHHL rabbits [5]; number in parentheses): 131% | Cholesterol Content of Aortic Arch, Total, percentage against the control (WHHL rabbits [5]; number in parentheses): 124% | Cholesterol level of Thoracic and Abdominal Aorta, Esterified, percentage against the control (WHHL rabbits [5]; number in parentheses): 198% | Cholesterol level of Thoracic and Abdominal Aorta, Free, percentage against the control (WHHL rabbits [5]; number in parentheses): 158% | Cholesterol level of Thoracic and Abdominal Aorta, Total, percentage against the control (WHHL rabbits [5]; number in parentheses): 169%

Cc1c(C)c2c(c(C)c1O)CCC(C)(COc1ccc(CC3SC(=O)NC3=O)cc1)O2 (stereo not shown) [Troglitazone, 5-{4-[(6-hydroxy-2,5,7,8-tetramethyl-chroman-2-yl)methoxy]benzyl}-2,4-thiazolidinedione]
Stained Area, % of Control (Male Fl b hamsters; 30 mg/kg): 109% | Stained Area, % of Control (Male Fl b hamsters; 100 mg/kg): 58% | Stained Area ORO (Male Fl b hamsters; 30 mg/kg in diet): 1.99 ± 0.40% | Stained Area ORO (Male Fl b hamsters; 100 mg/kg in diet): 1.05 ± 0.64% | regression of aortic lesions (Male Fl b hamsters; pravastatin 3 mg/kg, fluvastatin 1.5 mg/kg, troglitazone 30 mg/kg alone, combinations): no regression of aortic lesions | regression of aortic lesions (Male Fl b hamsters; troglitazone alone, 100 mg/kg): regression was observed | total cholesterol level, % of level before starting the study ([6]; week 4): 88% | total cholesterol level, % of level before starting the study ([6]; week 8): 89% | total cholesterol level, % of level before starting the study ([6]; week 12): 78% | total cholesterol level, % of level before starting the study ([6]; week 16): 83% | total cholesterol level, % of level before starting the study ([6]; week 20): 72% | total cholesterol level, % of level before starting the study ([6]; week 24): 73% | total cholesterol level, % of level before starting the study ([6]; week 28): 77% | total cholesterol level, % of level before starting the study ([6]; week 32): 76% | Rate of lesion area, against the control group ([7]; 10 mg/kg, figure in parentheses): 79 | Rate of lesion area ([7]; thoracic aorta, 10 mg/kg oral, two months, mean ± standard error, control 29 ± 20): 23 ± 7% | Incidence of xanthoma, Foreleg (WHHL rabbits [8]; week 32, control 100 (14/14)): 86% | Incidence of xanthoma, Hind leg (WHHL rabbits [8]; week 32, control 100 (14/14)): 29% | Incidence of xanthoma, Total (WHHL rabbits [8]; week 32, control 100 (28/28)): 57% | Coronary stenosis, RCA (right coronary artery) (WHHL rabbits [9]; control 13): 7% | Coronary stenosis, LAD (left anterior descending artery) (WHHL rabbits [9]; control 24): 11% | Coronary stenosis, LSP (left septal artery) (WHHL rabbits [9]; control 40): 31% | Coronary stenosis, LCX (left circumflex artery) (WHHL rabbits [9]; control 47): 39% | Coronary stenosis, MLC (main left coronary artery) (WHHL rabbits [9]; control 61): 59% | Coronary stenosis, MRC (main right coronary artery) (WHHL rabbits [9]; control 79): 83% | Lesion area, Abdominal aorta (WHHL rabbits [10]; control 29.9 ± 4.4): 27.6 ± 7.0% | Lesion Area, Total Aorta (WHHL rabbits [10]; control 65.7 ± 3.9): 51.7 ± 7.7% | Lesion area, Thoracic aorta (WHHL rabbits [10]; control 79.3 ± 5.4): 57.9 ± 9.9%
